Measured values taken from paper PMC7072302 (Biomolecules, 2020).

Target: T1, tyrosinase (Agaricus bisporus, UniProt C7FF04)
T1 construct: purchased Sigma-Aldrich T3824
Experiment: Tyrosinase enzymatic assay (L-tyrosine substrate, absorbance at 475 nm)
Type: biochemical
Conditions: for Ki: Dixon plot, read-out: Ki (inhibition constant); for inhibition at 100 µM: compound concentration 100 μM, L-tyrosine substrate, triplicate, mean ± SD, read-out: Inhibition Rate (%) at 100 μM; for IC50: concentrations 3.1 to 100 μM, mean ± SD (n = 3)

T1 sequence (C7FF04 1-392 limits assumed): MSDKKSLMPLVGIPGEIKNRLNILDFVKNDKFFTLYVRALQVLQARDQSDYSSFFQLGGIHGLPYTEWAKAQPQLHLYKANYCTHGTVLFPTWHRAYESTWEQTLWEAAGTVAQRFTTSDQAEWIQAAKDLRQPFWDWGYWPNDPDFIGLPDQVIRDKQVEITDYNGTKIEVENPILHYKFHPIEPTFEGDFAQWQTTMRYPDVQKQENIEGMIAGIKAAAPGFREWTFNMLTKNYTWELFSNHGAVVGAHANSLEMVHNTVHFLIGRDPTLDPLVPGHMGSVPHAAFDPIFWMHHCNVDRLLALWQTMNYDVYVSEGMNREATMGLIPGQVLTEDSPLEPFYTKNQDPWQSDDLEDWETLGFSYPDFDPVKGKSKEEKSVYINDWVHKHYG

| Ki [µM] | inhibition at 100 µM [%] | IC50 [µM] | SMILES |
| --- | --- | --- | --- |
| 1.6 | > 80 | 7.4 ± 0.4 | COc1cc(C(=O)OCCCCN=C(N)N)cc(OC)c1OC [Compound 1, 10-methoxy-leonurine] |
| – | 11.6 ± 0.1 | – | COc1cc(C(=O)O)cc(OC)c1O [Compound 3, syringic acid] |
| 11.4 | > 80 | 12.4 ± 0.8 | COc1cc(C(=O)OCCCCNC(=N)N)cc(OC)c1O [Compound 2, leonurine] |
| – | 1.8 ± 5.9 | – | O=c1c(O[C@@H]2O[C@H](CO)[C@@H](O)[C@H](O)[C@H]2O)c(-c2ccc(O)c(O)c2)oc2cc(O)cc(O)c12 [Compound 4, isoquercitrin] |
